Several values for one entry are separate records, joined by “and”; a condition that tells them apart may be missing. Equal entries are not always repeated.
Assays:
[1] = system: MDA-MB-231 (EGFR overexpressed) cells; assay: Functional evaluation by confocal microscopy, MDA-MB-231; type: cell-based; conditions: fluorescein MTX 5 µg/mL or conjugated system 8.6 µg/mL, 24 h
Protocol: (§1) MDA-MB-231 (EGFR overexpressed) and SiHa (EGFR negative) cells were grown on coverslips inside the 6-well plates, and the receptor binding ability of MTX–G–P4LDN–E2 was analyzed by confocal microscopy. Fluorescein methotrexate (5 µg/mL) and fluorescein MTX conjugated system (8.6 µg/mL; having equivalent methotrexate concentrations) were added to the wells and incubated for 24 h. The cells without MTX or DDS treatment were taken as the control. Then, Hoechst 33342 (10 µg/mL) was added and incubated for 15 min. The cells were observed under a confocal laser scanning microscope at suitable magnifications.

[2] = system: MDA-MB-231 (EGFR overexpressed) cells; assay: Receptor binding ability by flow cytometry, MDA-MB-231; type: cell-based; conditions: fluorescein MTX 5 µg/mL or fluorescein MTX-conjugated system 8.6 µg/mL (equivalent MTX), 24 h
Protocol: (§2) Then fluorescein MTX (5 µg/mL) and fluorescein MTX-conjugated systems (8.6 µg/mL; having equivalent MTX concentrations) were added to each well and incubated for 24 h. After incubation, the cells were trypsinized and analyzed by flow cytometry. The cells without MTX or DDS treatment were taken as the control.

[3] = system: MDA-MB-231 tumor; assay: Anti-tumor efficacy in MDA-MB-231 tumor-bearing NOD-SCID mice; type: in vivo; conditions: female NOD-SCID mice, tail vein, 5 times for 20 days
Protocol: For analyzing the efficacy of the nanocarrier systems, fifteen male and fifteen female NOD-SCID mice were assigned to three groups each (n = 3 in first group and n = 6 in second and third groups). Tumor was implanted by injecting cells subcutaneously in the dorsolateral flank with a concentration of 5 × 10^6 MDA-MB-231 cells to female NOD-SCID mice. When the volume of tumor reached 500–1000 mm^3, the first group of animals, serving as the control group, was given PBS (5 mL/kg body weight). The second group was given free-drug MTX (20 mg/kg) through the tail vein. The third group received MTX–G–P4LDN–E2 (35 mg/kg, equivalent to the MTX concentration) through the tail vein, and the treatment was given to the mice 5 times for 20 days.
The tumor volume and body weight of the animals were measured before each injection. The body weight and tumor volume on the final day (24th day) was also calculated. A vernier caliper was used to measure the tumor, and the tumor volume was calculated using the formula: Tumor volume (mm^3)=(length in mm)×(width in mm)^2/2
The treatment was started when the tumor volume reached 500–1000 mm^3. There were 3 groups (n = 3 for control group and n = 6 for treatment groups). First group received PBS (5 mL/kg body weight) was treated as the control. […] On every injection day, the tumor volume as well as the body weight of the animals were measured.

[4] = system: SiHa (EGFR negative) cells; assay: Functional evaluation by confocal microscopy, SiHa; type: cell-based; conditions: fluorescein MTX 5 µg/mL or conjugated system 8.6 µg/mL, 24 h
Protocol: as §1

[5] = system: SiHa cells; assay: Cytotoxicity by MTT assay, SiHa; type: cell-based; conditions: SiHa (receptor negative), MTX 5 µg/mL or nanocarrier system at equivalent drug concentration (8.6 µg/mL), 48 h, triplicate
Protocol: (§3) The cytotoxic efficacy of MTX–G–P4LDN–E2 was analyzed by an MTT assay. The cells were seeded in a 96-well plate at a density of 5000 cells per well. […] After 48 h of incubation, the cells were washed twice with 1X PBS, followed by the addition of MTT reagent (100 μL; 5 mg/mL in PBS) and 100 μL serum-free media to all wells and incubated for 3 h. Then DMSO (100 µL) was added to solubilize the formazan crystals, formed in viable cells. After 20 min, the optical density (OD) was measured at 570 nm using a microplate reader (BioRad). The percentage cell viability was calculated as 100 percentage cytotoxicity, where: % cytotoxicity=O.D of control−O.D of test /O.D of control[…]

[6] = system: SiHa (EGFR negative) cells; assay: Receptor binding ability by flow cytometry, SiHa; type: cell-based; conditions: fluorescein MTX 5 µg/mL or fluorescein MTX-conjugated system 8.6 µg/mL (equivalent MTX), 24 h
Protocol: as §2

[7] = system: MDA-MB-231 cells; assay: Cytotoxicity by MTT assay, MDA-MB-231; type: cell-based; conditions: MDA-MB-231 (receptor positive), MTX 5 µg/mL or nanocarrier system at equivalent drug concentration (8.6 µg/mL), 48 h, triplicate
Protocol: as §3

[8] = system: SiHa cells; assay: Cell cycle analysis by flow cytometry (propidium iodide), SiHa; type: cell-based; conditions: 24 h incubation, FACS
Protocol: (§4) The cell cycle analysis was conducted by flow cytometry using the manufacturer’s protocol. Briefly, MDA-MB-231 and SiHa cells (1 × 10^5cells/well) were incubated with MTX and MTX–G–P4LDN–E2 for 24 h, trypsinized, and centrifuged to collect the pellet. The cells were then fixed with pre-cooled 70% ethanol at 4 °C for 45 min. After fixation, the pellet was collected carefully after centrifugation at 850× g for 5 min. It was then washed twice with 1X PBS, and 50 μL RNase (100 μg/mL) was added and incubated for 45 min at 37 °C. Then, the cells were washed with 1X PBS and stained with propidium iodide (100 μL, 50 μg/mL) for 10 min. The cellular DNA was analyzed by flow cytometer, and the percentage of cells in each phase of the cell cycle was analyzed by BD FACS Diva software.

[9] = system: MDA-MB-231 cells; assay: Cell cycle analysis by flow cytometry (propidium iodide), MDA-MB-231; type: cell-based; conditions: MDA-MB-231, 24 h incubation, FACS
Protocol: as §4

[10] = system: MDA-MB-231 cells; assay: In vitro binding of rhodamine B-conjugated peptides, MDA-MB-231; type: cell-based; conditions: MDA-MB-231, 2 h, 37 °C, flow cytometry and confocal imaging
Protocol: Figure S4. Binding activities of rho B-conjugated peptides after incubating with MDA-MB-231 cells for 2 hours at 37°C. a) Untreated control MDA-MB-231 cell. MDA-MB-231 cells binding with b) E1, c) E2, d) E3, e) E4, and f) E5. g) Binding affinity percentages of rho B- conjugated peptides. […]
Figure S6. Internalization of peptides in MDA -MB-231 cells. MDA-MB-231 (EGFR overexpressed) cells were incubated with E1 to E5 peptides (50 µM) for 2 hours at 37°C. Rho-B alone was given as the control. The cells were nuclear stained […]
(1 picture or pasted object on this page, not shown here)

Q: What does the source list for CN(Cc1cnc2nc(N)nc(N)c2n1)c1ccc(C(=O)N[C@@H](CCC(=O)O)C(=O)O)cc1 [MTX, methotrexate]?
A: Binding (fluorescence) in confocal images [1]: bound with the MDA-MB-231 cells similarly; Binding ability (% of cells, P2) [2]: 99.6% and > 99%; Average tumor volume at the end of the treatment ([3]; MTX 20 mg/kg or MTX–G–P4LDN–E2 35 mg/kg (equivalent MTX), day 25, n = 6, mean ± SD, control 2890 ± 85.440): 661.8 ± 209.067 mm^3; Reduction in tumor volume compared to control ([3]; MTX 20 mg/kg or MTX–G–P4LDN–E2 35 mg/kg, day 25, n = 6): 77.2%; Binding (fluorescence) in confocal images [4]: only the free drug showed fluorescence; Cytotoxicity [5]: 57%; Binding ability (% of cells, P2) [6]: 82.4%; Cytotoxicity [7]: 63%; Percentage of cells in G0 [8]: 14.4%; Percentage of cells in G1 [8]: 64.3%; Percentage of cells in G2-M [8]: 10.7%; Percentage of cells in S [8]: 8.8%; Percentage of cells in G0 [9]: 9%; Percentage of cells in G1 [9]: 52.1%; Percentage of cells in G2-M [9]: 14.9%; Percentage of cells in S [9]: 19.1%

Q: “ARSHVGYTGAR [E2, EGFR-specific short peptide …]” was tested. Which “Binding efficacy of the short peptides in vitro” value [10] did it give?
A: Its value is “highest binding efficacy”.
